Measurements published in ChEMBL document CHEMBL1201862, “PubChem BioAssay data set” (2004).
One block for each molecule: values may come before it. Activity calls are given as the source filed them.

Tests used:
[1] = biological target: T1, Carboxy-terminal domain RNA polymerase II polypeptide A small phosphatase 1 (Homo sapiens, UniProt Q9GZU7); experiment: CTDSP1 inhibitors, concentration-response, biochemical, absorbance readout, ultra-high-throughput screen actives (AID 540297); type: functional
T1 sequence (Q9GZU7 whole entry): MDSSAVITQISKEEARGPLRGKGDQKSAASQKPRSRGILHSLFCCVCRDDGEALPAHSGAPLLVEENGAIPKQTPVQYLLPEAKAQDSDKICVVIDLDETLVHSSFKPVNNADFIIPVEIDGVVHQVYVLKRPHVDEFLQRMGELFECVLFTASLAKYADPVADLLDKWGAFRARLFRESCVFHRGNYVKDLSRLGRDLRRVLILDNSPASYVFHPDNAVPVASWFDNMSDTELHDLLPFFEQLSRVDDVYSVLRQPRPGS

Prothrombin = Prothrombin (Bos taurus, UniProt P00735); experiment: thrombin protease inhibitors – biochemical, fluorescence polarization, uHTS hits, dose response (AID 602369); type: functional
[2] = biological target: 26S proteasome non-ATPase regulatory subunit 14 (Homo sapiens, UniProt O00487); experiment: inhibition of proteasome subunit RPN11 – biochemical, fluorescence polarization, uHTS hits, confirmation (AID 602368); type: functional
[3] = biological target: 72 kDa type IV collagenase (Homo sapiens, UniProt P08253); experiment: Dose Response validation of uHTS RPN11 inhibitor hits using a MMP-2 Fluorescence assay.; type: functional
[4] = biological target: T2, High affinity choline transporter 1 (Homo sapiens, UniProt Q9GZV3); experiment: human choline transporter blockers, potency – cell-based, 5-point CRC, membrane potential dye, dose response (AID 504840); type: functional
T2 sequence (Q9GZV3 whole entry): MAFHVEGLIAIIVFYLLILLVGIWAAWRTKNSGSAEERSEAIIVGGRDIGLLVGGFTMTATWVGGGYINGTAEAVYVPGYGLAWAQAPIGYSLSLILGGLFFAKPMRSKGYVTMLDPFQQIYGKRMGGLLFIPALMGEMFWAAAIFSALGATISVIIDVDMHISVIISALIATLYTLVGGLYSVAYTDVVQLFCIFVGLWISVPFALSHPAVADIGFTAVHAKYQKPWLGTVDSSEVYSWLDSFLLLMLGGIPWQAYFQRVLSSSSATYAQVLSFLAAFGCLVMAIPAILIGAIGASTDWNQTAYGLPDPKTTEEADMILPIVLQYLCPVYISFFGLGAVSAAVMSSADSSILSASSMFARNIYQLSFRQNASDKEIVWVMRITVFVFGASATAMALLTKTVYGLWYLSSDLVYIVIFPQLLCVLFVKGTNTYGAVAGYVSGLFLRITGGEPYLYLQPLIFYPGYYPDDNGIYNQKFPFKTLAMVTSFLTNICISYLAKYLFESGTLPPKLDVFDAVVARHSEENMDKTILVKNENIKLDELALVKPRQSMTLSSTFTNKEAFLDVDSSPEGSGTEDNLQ

Streptococcus = experiment: GAS UMAA2166 growth inhibition – luminescence, BacTiterGlo, counter-screen for streptokinase expression inhibitor project, dose response (AID 1915); type: functional, organism-based;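 note: potency for reduction of bacterial viability or growth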
[5] = system: Streptococcus sp. 'group A'; experiment: Streptococcus pyogenes SK(-)GAS viability under kanamycin – luminescence, BacTiterGlo, confirmation, counter-screen for streptokinase expression inhibitor project, dose response (AID 1900); type: functional, organism-based
A-375 = experiment: MITF: Counter assay: A375 proliferation Measured in Cell-Based System Using Plate Reader - 2084-03_Inhibitor_Dose_DryPowder_Activity. [Related pubchem assays (depositor defined):AID488944]; type: functional; conditions: Homo sapiens
[6] = biological target: T3, Microphthalmia-associated transcription factor (Homo sapiens, UniProt O75030); experiment: reducers of TRPM1 reporter luminescence, concentration series – cell-based, SK-MEL-5, cherry-picked, set 3, MITF inhibitor project, dose response (AID 493073); type: functional;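 note: SK-MEL-5 melanoma cells with luciferase driven by the MITF target TRPM1 promoter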
T3 sequence (O75030 whole entry): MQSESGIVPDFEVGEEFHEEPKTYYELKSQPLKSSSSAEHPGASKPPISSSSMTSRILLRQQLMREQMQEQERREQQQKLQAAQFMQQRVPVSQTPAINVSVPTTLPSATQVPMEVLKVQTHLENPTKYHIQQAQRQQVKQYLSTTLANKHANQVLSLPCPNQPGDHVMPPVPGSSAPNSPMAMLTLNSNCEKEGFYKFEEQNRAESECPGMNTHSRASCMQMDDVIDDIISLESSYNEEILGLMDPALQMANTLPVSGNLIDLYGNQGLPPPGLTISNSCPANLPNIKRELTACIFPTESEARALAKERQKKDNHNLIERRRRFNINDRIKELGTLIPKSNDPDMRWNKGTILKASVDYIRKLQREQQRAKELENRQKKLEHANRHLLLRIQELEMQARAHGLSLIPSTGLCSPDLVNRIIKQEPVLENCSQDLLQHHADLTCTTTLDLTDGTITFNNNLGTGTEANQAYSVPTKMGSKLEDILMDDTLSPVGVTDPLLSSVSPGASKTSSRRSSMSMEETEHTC

INS1 = experiment: INS-1E survival protection against cytokine death – cell-based, luminescence, retest, dose response (AID 449756); type: functional; conditions: Rattus norvegicus;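 note: cell death triggered by IL-1 beta plus TNF-alpha plus IFN-gamma mixture; protective hits raise ATP signal compared with cytokine alone wells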
[7] = HEK-293T viability loss after treatment – luminescence, T-cell screen hits, cytotoxicity control for TCR NF-kB inhibitor project, dose response (AID 489026); type: functional, cell-based;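 note: cells exposed to compound about 14 hours before the viability readout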

Sequence of 72 kDa type IV collagenase (P08253 whole entry): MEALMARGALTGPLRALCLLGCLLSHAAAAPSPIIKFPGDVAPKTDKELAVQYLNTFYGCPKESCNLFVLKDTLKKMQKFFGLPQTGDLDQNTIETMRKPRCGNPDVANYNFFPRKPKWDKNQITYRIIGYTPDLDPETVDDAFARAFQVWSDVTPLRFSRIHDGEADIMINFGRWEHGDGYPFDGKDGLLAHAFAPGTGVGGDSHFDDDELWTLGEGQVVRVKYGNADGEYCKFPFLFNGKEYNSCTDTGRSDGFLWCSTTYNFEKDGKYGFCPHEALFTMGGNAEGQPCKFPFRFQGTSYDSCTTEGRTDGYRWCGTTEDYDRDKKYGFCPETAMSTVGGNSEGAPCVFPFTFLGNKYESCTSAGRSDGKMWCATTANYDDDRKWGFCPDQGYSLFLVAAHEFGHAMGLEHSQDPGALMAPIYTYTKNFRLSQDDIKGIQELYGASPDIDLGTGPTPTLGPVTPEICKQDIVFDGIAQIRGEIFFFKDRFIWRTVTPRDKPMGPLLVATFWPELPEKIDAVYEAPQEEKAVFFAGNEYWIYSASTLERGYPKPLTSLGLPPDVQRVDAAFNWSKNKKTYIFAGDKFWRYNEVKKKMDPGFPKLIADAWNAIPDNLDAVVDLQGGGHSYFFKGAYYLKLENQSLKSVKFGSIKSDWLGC
Sequence of 26S proteasome non-ATPase regulatory subunit 14 (O00487 whole entry): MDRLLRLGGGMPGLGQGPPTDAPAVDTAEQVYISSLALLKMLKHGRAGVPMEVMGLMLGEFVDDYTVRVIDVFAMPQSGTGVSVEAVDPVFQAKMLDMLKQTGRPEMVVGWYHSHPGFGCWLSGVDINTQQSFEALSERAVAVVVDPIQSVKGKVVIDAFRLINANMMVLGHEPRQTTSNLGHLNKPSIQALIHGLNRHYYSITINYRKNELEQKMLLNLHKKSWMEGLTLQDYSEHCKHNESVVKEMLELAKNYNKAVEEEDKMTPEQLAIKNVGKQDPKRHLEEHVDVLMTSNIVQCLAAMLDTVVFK

- IC50 [1]: 14.3 µM (active)
Structure (SMILES): COc1cc(OC)c2ccc(=O)oc2c1C(CC(=O)N1CCCC(C)C1)c1ccc2c(c1)OCO2 (centres undefined)

- IC50 [1]: 8.39 µM (active)
Structure (SMILES): O=C(CSc1nc2c(sc3ccccc32)c(=O)n1CCO)NCc1ccco1

- IC50 (Prothrombin): 77.5 µM (active)
- IC50 [2]: 18.2 µM (active)
- IC50 [1]: 4.45 µM (active)
- IC50 [3]: > 100 µM (inactive)
Structure (SMILES): O=C(N/N=C/c1ccccc1F)c1cc2c(ccc3ccccc32)o1

Structure (SMILES): Oc1c(Br)cc(Br)cc1/C=N/c1nc2c(s1)CCCC2
- IC50 [4]: 13.2 µM (active)
- EC50 (Streptococcus): 7.68 µM (active)
- EC50 [5]: 7.39 µM (active)

- IC50 [4]: 13.2 µM (active)
Structure (SMILES): O=C(O/N=C(/c1ccccc1)c1ccncc1)c1ccccc1[N+](=O)[O-]

Structure (SMILES): COc1ccc(C(=O)/C(C#N)=N/Nc2ccc([N+](=O)[O-])cc2)cc1
- AC50 (A-375): 28.8 µM (active)
- AC50 [6]: 8.26 µM (active)
- AC50 (INS1): 1.9 µM (active)
- IC50 [7]: > 80 µM (inactive)
